Consider one compound from PMC4814829, “Design, synthesis, crystallization and biological evaluation of new symmetrical biscationic compounds as selective inhibitors of human Choline Kinase α1 (ChoKα1)” (Scientific Reports, 2016).

The test system of data set [1] is breast- and colon-cancer cells. Set-up: method as in earlier work. To be noted: 15 μM; ref 15 (Sanchez-Lopez et al.); cited from earlier work.
Another data set concerns Jurkat cells. Put plainly: Antiproliferative MTT assay. It counts as cell-based. To be noted: Homo sapiens, 72 h, mean ± SEM. Here is the method:
(§1) Human T-cell leukemia (Jurkat), human B-cell leukemia (RS 4,11) and human promyelocytic leukemia (HL-60) cells were grown in RPMI-1640 medium (Gibco, Milan, Italy). Breast adenocarcinoma (MCF-7 and MDA-MB-231), human non-small cell lung carcinoma (A549), human cervix carcinoma (HeLa), human prostate adenocarcinoma (PC-3), and human colon adenocarcinoma (HT-29) cells were grown in DMEM medium (Gibco, Milan, Italy). Both media were supplemented with 115 units/mL of penicillin G (Gibco, Milan, Italy), 115 μg/mL of streptomycin (Invitrogen, Milan, Italy) and 10% fetal bovine serum (Invitrogen, Milan, Italy). Stock solutions (10 mM) of the different compounds were obtained by dissolving them in DMSO. Individual wells of 96-well tissue-culture microtiter plates were inoculated with 100 μL of complete medium containing 8 × 10^3 cells. The plates were incubated at 37 °C in a humidified 5% CO2 incubator for 18 h prior to the experiments. After medium removal, 100 μL of fresh medium containing the test compound at different concentrations was added to each well and incubated at 37 °C for 72 h. The percentage of DMSO in the medium in no case exceeded 0.25%.

The test system of data set [2] is MDA-MB-231 cells. The data set can be described thus: Antiproliferative MTT assay. It counts as cell-based. The settings on record: Homo sapiens, 72 h, mean ± SEM. Here is the method:
as §1

The subject of a further data set is HT-29 cells. Put plainly: Antiproliferative MTT assay. It counts as cell-based. The settings on record: Homo sapiens, 72 h, mean ± SEM. Here is the method:
as §1

The test system of a further data set is MCF-7 cells. The data set can be described thus: Antiproliferative MTT assay. It is filed as cell-based. The settings on record: Homo sapiens, MCF7, 72 h, mean ± SEM. Here is the method:
as §1

For another data set, the system named is HL-60 cells. The data set can be described thus: Antiproliferative MTT assay. It counts as cell-based. The settings on record: Homo sapiens, 72 h, mean ± SEM. Here is the method: as §1
The next data set has as its system A549 cells. Put plainly: Antiproliferative MTT assay. It is filed as cell-based. The settings on record: Homo sapiens, 72 h, mean ± SEM. Here is the method:
as §1

The test system of the next data set is RS4,11 cells. The data set can be described thus: Antiproliferative MTT assay. It is filed as cell-based. The settings on record: Homo sapiens, 72 h, mean ± SEM. Here is the method: as §1
Another data set relates to HeLa cells. Put plainly: Antiproliferative MTT assay. To be noted: Homo sapiens, 72 h, mean ± SEM. It counts as cell-based. Here is the method: as §1
For data set [3], the system named is MDA-MB-231 cells. Put plainly: Cell-cycle distribution analysis (PI, flow cytometry). It counts as cell-based, human. To be noted: MDA-MB-231. Here is the method: [The source words this procedure for another cell line and reports this cell line under the same test.] For flow-cytometric analysis of the DNA content, 5 × 10^5 HeLa or Jurkat cells in exponential growth were treated with different concentrations of the test compounds for 24 and 48 h. After the incubation period, the cells were collected, centrifuged, and fixed with ice-cold ethanol (70%). The cells were then treated with lysis buffer containing RNAse A and 0.1% Triton X-100, and then stained with propidium iodide (PI). Samples were analyzed in a Cytomics FC500 flow cytometer (Beckman Coulter). DNA histograms were analyzed using MultiCycle for Windows (Phoenix Flow Systems).

A further data set relates to mice. To be noted: mouse, in vivo; cited from earlier work.
A further data set has as its system PBL (resting). The data set can be described thus: Antiproliferative assay in non-tumoral cells (MTT). The settings on record: Homo sapiens, 72 h, mean ± SEM. It is filed as cell-based. Here is the method: (§2) Peripheral mononuclear cells (PBMC) from healthy donors were obtained by separation on Lymphoprep (Fresenius KABI Norge AS) gradient. After extensive washing, cells were resuspended (1 × 10^6 cells/mL) in RPMI-1640 with 10% fetal bovine serum and incubated overnight. For cytotoxicity evaluations in proliferating PBL cultures, non-adherent cells were resuspended at 5 × 10^5 cells/mL in growth medium, containing 2.5 μg/mL PHA (Irvine Scientific). Different concentrations of the test compounds were added, and viability was determined 72 h later by the MTT test. For cytotoxicity evaluations in resting PBL cultures, non-adherent cells were resuspended (5 × 10^5 cells/mL) and treated for 72 h with the test compounds, as described above.

Another data set deals with PBL (+Pha). The data set can be described thus: Antiproliferative assay in non-tumoral cells (MTT). It is filed as cell-based. To be noted: Homo sapiens, non-tumoral cells stimulated with phytohematoagglutinin, 72 h, mean ± SEM. Here is the method: as §2
Another data set deals with HUVEC. The data set can be described thus: Antiproliferative assay in non-tumoral cells. It is filed as cell-based. To be noted: Homo sapiens, mean ± SEM. Here is the method:
Human Umbilical Vein Endothelial cells (HUVEC), were prepared from human umbilical-cord veins, as previously described. The adherent cells were maintained in M200 medium added by LSGS (low serum growth supplement), containing FBS, hydrocortisone, hEGF, bFGF, heparin, gentamycin/amphotericin (Life Technologies, Monza, Italy). Once confluent, the cells were detached by trypsin–EDTA solution and used in experiments from the first to sixth passages.

With `CN(c1ccc(Cl)cc1)c1cc[n+](Cc2ccc(-c3ccc(C[n+]4ccc(N(C)c5ccc(Cl)cc5)c5ccccc54)cc3)cc2)c2ccccc12` [RSM932A, reference compound], the “Cell-cycle effect (G1 phase)” value in [1] was “significant decrease of the G1 phase”. Besides, the GI50 in the data set with Jurkat cells is 410 ± 100 nM; in the data set on MDA-MB-231 cells [2], 170 ± 50 nM; in the data set on HT-29 cells, 400 ± 200 nM; with MCF-7 cells, 180 ± 100 nM; with HL-60 cells, 930 ± 100 nM; with A549 cells it was 450 ± 90 nM. Moreover, the GI50 with RS4,11 cells came out at 170 ± 40 nM; with HeLa cells, 830 ± 100 nM; with PBL (resting) it was 1100 ± 90 nM; with PBL (+Pha) it was 230 ± 50 nM; in the data set with HUVEC, 460 ± 47 nM. Besides, the “Cells with hypodiploid DNA content (apoptotic cells by cell-cycle analysis)” value in the data set with MDA-MB-231 cells [3] is “negligible percentage of apoptotic cells”. For the same compound, the “Toxicity profile and tolerability” value with mice is on record as “low-toxicity profile with improved tolerability”.
